Source: patent US5506359A, “Cocaine analogues and their use as cocaine drug therapies and therapeutic and imaging agents for neurodegenerative disorders” (priority 1993, dated 1996)
Read-outs that look alike come from different tables or passages of the source.

Tests used:
[1] = molecular target: T1, dopamine transporter ([^3 H]CFT binding sites, primate caudate-putamen) (Macaca fascicularis, UniProt Q9GJT6); assay: Inhibition of [^3 H]CFT binding in monkey caudate-putamen membranes (Table 2); design: species or system cynomolgus monkeys (Macaca fascicularis)
T1 construct: from tissue; host or cells: caudate-putamen membranes of cynomolgus monkey brain
T1 sequence (Q9GJT6 whole entry): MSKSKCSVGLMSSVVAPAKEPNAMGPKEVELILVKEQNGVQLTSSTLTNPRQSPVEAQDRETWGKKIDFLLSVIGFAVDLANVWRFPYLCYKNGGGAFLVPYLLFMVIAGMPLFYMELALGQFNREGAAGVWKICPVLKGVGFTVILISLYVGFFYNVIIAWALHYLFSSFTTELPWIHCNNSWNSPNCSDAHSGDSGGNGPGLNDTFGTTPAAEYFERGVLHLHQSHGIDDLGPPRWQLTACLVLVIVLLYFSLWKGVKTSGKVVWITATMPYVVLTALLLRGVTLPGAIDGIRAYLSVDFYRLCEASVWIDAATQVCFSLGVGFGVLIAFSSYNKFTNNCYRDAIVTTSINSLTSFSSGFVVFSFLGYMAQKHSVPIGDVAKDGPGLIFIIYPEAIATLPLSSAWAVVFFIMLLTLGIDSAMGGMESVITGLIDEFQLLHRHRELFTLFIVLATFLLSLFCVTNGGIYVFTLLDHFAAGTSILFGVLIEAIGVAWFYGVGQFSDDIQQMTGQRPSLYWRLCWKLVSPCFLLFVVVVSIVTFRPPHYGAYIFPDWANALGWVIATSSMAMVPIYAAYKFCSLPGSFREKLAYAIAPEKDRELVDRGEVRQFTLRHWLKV

[2] = molecular target: dopamine transporter, human caudate nucleus and putamen (Homo sapiens, UniProt Q01959); assay: [^3 H]CFT binding to homogenates of human caudate nucleus and putamen
Chain of dopamine transporter, human caudate nucleus and putamen (Q01959 whole entry): as the sequence (Q9GJT6 whole entry) above, with M24V, V137I, S194P, G198S, N200D, G201S, P202S counted along it
From the text: In order to determine whether [^3 H]CFT labels sites associated with the dopamine transporter, the binding of [^3 H]CFT to homogenates of human caudate nucleus and putamen, was characterized.

[3] = system: [^3 H]CFT binding sites in monkey caudate-putamen; settings: cited from earlier work; for number of binding components: competition curves; for steepness of competition curve: displacement of [^3 H]CFT
[4] = system: cocaine binding sites associated with the dopamine transporter; assay: Binding in postmortem Parkinson's diseased putamen / caudate-putamen; design: species or system human; settings: tissue homogenates (FIG. 3) or tissue sections
[5] = system: cocaine recognition sites in squirrel monkey brain; assay: In vitro autoradiography in squirrel monkey brain sections; type: binding
Protocol: To identify the distribution of cocaine recognition sites in the brain, autoradiographic techniques were utilized. Such techniques were particularly appropriate for this purpose because they are 100-1,000 times more sensitive than radioreceptor assays conducted in tissue homogenates. […] Three sequential procedures: parametric studies, in vitro autoradiographic techniques, and ex vivo autoradiographic techniques were conducted in tissue sections of squirrel monkey brains.
After establishing suitable conditions for autoradiography, systematic mapping of cocaine recognition sites were conducted in squirrel monkey brain at nine anterior-posterior levels. Tissue sections were incubated alone, or in the presence of excess (-)-cocaine to determine total and nonspecific binding of [^3 H]CFT, respectively.

[6] = system: cocaine receptors in squirrel monkey brain; assay: Ex vivo autoradiography after intravenous administration; type: in vivo, squirrel monkeys
From the text: From the in vitro autoradiographic studies, two conclusions were drawn: (a) cocaine receptors labelled by [^3 H]CFT distributed primarily to dopamine-rich brain regions and (b) the highly circumscribed distribution and low level of non-specific binding of [^3 H]CFT further supported the development of CFT as a PET imaging ligand for cocaine receptors in vivo. However, as the distribution pattern of a probe in vitro may not necessarily reflect its distribution in vivo, it was necessary to determine whether similar conclusions could be drawn using ex vivo autoradiographic techniques. The ex vivo autoradiographic distribution of [^3 H]CFT was determined following intravenous administration of [^3 H]CFT (1.0 or 2.5 nmol/kg) to squirrel monkeys (FIG. 4B). Brain sections from several A-P levels were exposed to [^3 H]-sensitive film. […] Nevertheless, the ex vivo labeling of brain regions by [^3 H] CFT corresponded closely to the in vitro autoradiographic pattern.
(§1) At the time these studies were completed, a higher affinity iodinated analog of [^3 H]CFT, [^125 I]RTI-55 (i.e., CIT, 2β-carbomethoxy-3β-(4-iodophenyl)tropane; Dupont-NEN), became available. […] This ligand was also tested by ex vivo autoradiography as an imaging probe.

[7] = molecular target: T2, cocaine recognition sites in monkey caudate-putamen (Macaca fascicularis, UniProt Q9GJT6); assay: [^3 H]CFT and [^3 H]cocaine binding in tissue homogenates of monkey caudate-putamen
T2 construct: All studies were conducted in monkey brain caudate-putamen; from tissue; host or cells: monkey brain caudate-putamen homogenates
T2 sequence (Q9GJT6 whole entry): as the sequence (Q9GJT6 whole entry) above
Protocol: All studies were conducted in monkey brain caudate-putamen for two reasons. […] Second, primates are consistently used to test diagnostic imaging agents and to test for cocaine-like drugs and drug therapies for Parkinson's disease.

[8] = molecular target: T2, cocaine recognition sites in monkey caudate-putamen; settings: cited from earlier work
[9] = system: caudate-putamen / striatum cocaine receptors; assay: PET imaging with [^11 C]CFT
[10] = system: sites in the caudate putamen; assay: [^125 I]RTI-55 labeling of sites in caudate putamen; type: binding
Protocol: as §1

[11] = system: serotonin transporter; settings: cited from earlier work
[12] = human caudate nucleus and putamen homogenates
[13] = [^3 H]CFT 1.0 or 2.5 nmol/kg i.v.

SMILES: COC(=O)[C@H]1[C@@H](c2ccc(Cl)cc2)C[C@@H]2CC[C@H]1N2C [4'b (CCT), 2β-Carbomethoxy-3β-(4-chlorophenyl)tropane]
- IC50 [1]: 1.4 ± 0.035 nM

SMILES: COC(=O)[C@H]1[C@@H](c2cccc(Br)c2)C[C@@H]2CC[C@H]1N2C [4'd (3-CBT), 2β-Carbomethoxy-3β-(3-bromophenyl)tropane]
- IC50 [1]: 7.93 ± 0.077 nM

SMILES: COC(=O)[C@H]1[C@@H](c2cccc(I)c2)C[C@@H]2CC[C@H]1N2C [4'e (3-CIT), 2β-Carbomethoxy-3β-(3-iodophenyl)tropane]
- IC50 [1]: 27.8 ± 3.05 nM

SMILES: CCC[CH2][Sn]([CH2]CCC)([CH2]CCC)[c]1cccc([C@H]2C[C@@H]3CC[C@H]([C@H]2C(=O)OC)N3C)c1 [4'f, 2β-Carbomethoxy-3β-(3-tributylstannylphenyl)tropane]
- IC50 [1]: 1080 ± 165 nM

SMILES: COC(=O)[C@H]1[C@@H](c2ccccc2)C[C@@H]2CC[C@H]1N2C [4'g (WIN 35, 065-2)]
- IC50 ([1]; read-out: IC50): 65 ± 12 nM

SMILES: COC(=O)[C@H]1[C@@H](c2ccc(I)cc2)C[C@@H]2CC[C@H]1N2C [4'h (RTI-55), 2β-carbomethoxy-3β-(4-iodophenyl)tropane]
- IC50 [1]: 1.08 ± 0.06 nM

SMILES: COC(=O)[C@@H]1[C@H](OC(=O)c2ccccc2)C[C@H]2CC[C@@H]1N2C [(+)-cocaine]
- rank order of potency for inhibiting [^3 H]CFT binding [2, 12]: Lu 19-005>CFT, mazindol, GBR 12909>(-)-cocaine>bupropion>(+)-cocaine

SMILES: COC(=O)[C@H]1[C@@H](OC(=O)c2ccccc2)C[C@@H]2CC[C@H]1N2C [(-)-cocaine]
- extent of displacement of [^3 H]CFT [3]: full displacement of [^3 H]CFT
- number of binding components [3]: at least two binding components
- steepness of competition curve [3]: 0.61-0.89
- rank order of potency for inhibiting [^3 H]CFT binding [2, 12]: Lu 19-005>CFT, mazindol, GBR 12909>(-)-cocaine>bupropion>(+)-cocaine

SMILES: COC(=O)[C@H]1[C@@H](OC(=O)c2ccccc2)C[C@@H]2CC[C@H]1N2 [(-)-norcocaine]
- extent of displacement of [^3 H]CFT [3]: full displacement of [^3 H]CFT
- number of binding components [3]: at least two binding components
- steepness of competition curve [3]: 0.61-0.89

SMILES: Fc1ccc(C(OCCN2CCN(CCCc3ccccc3)CC2)c2ccc(F)cc2)cc1 [GBR 12909]
- number of binding components [3]: a single binding component
- steepness of competition curve [3]: 0.94-1.1
- rank order of potency for inhibiting [^3 H]CFT binding [2]: Lu 19-005>CFT, mazindol, GBR 12909>(-)-cocaine>bupropion>(+)-cocaine

SMILES: CNC1CC(c2ccc(Cl)c(Cl)c2)c2ccccc21 (stereo not shown) [Lu 19-005]
- number of binding components [3]: a single binding component
- steepness of competition curve [3]: 0.94-1.1

SMILES: COC(=O)[C@H]1[C@@H](c2ccc(F)cc2)C[C@@H]2CC[C@H]1N2C [[^3 H]CFT, 2β-carbomethoxy-3β-(4-fluorophenyl)tropane]
- [^3 H]CFT binding sites in postmortem human Parkinson's diseased caudate-putamen [4]: severely depleted
- density of [^3 H]CFT binding ([5]; bed nucleus of stria terminalis, ventral tegmental area, medial preoptic area, pineal, hippocampus, thalamic central nuclei): Low, though measurable, levels
- specific binding as % of total binding ([5]; caudate nucleus, putamen, nucleus accumbens, olfactory tubercle): > 90%
- density of [^3 H]CFT binding ([5]; dopamine-rich regions: caudate nucleus, putamen, nucleus accumbens, olfactory tubercle): High densities
- density of [^3 H]CFT binding ([5]; substantia nigra, zona incerta, amygdala, hypothalamus): Intermediate densities
- density of [^3 H]CFT binding ([5]; white matter, cerebellum, globus pallidus, cortical regions): Near background levels
- ex vivo binding compared with in vitro, cortex and thalamus [6, 13]: more prominent binding in vivo than in vitro
- ex vivo distribution of binding [6, 13]: caudate, putaman>nucleus accumbens/olfactory tubercla, stria terminalis>substantia nigra>hypothalamus
- affinity relative to [^3 H]cocaine [7]: 18 times
- character of [^3 H]CFT binding [2, 12]: saturable, stereoselective
- stereoselective inhibition of binding ([8]; by enantiomers of cocaine and pseudococaine and diastereoisomers of WIN 35,065-2): inhibited stereoselectively
- NaCl requirement for specific binding [8]: NaCl was necessary for specific binding
- dissociation rate versus [^3 H]cocaine [8]: considerably slower
- non-specific binding versus [^3 H]cocaine [8]: lower than that of [^3 H]cocaine
- high-affinity component of total number of sites ([8]; high- and low-affinity binding components): approximately 10%
- Bmax (density of binding sites) ([8]; monkey caudate-putamen homogenates): 388 pmol/g
- Kd ([8]; read-out: K0.50, affinity, monkey caudate-putamen): 16 nM

SMILES: COC(=O)[C@H]1[C@@H](c2ccc(F)cc2)C[C@@H]2CC[C@H]1N2C [[^11 C]CFT, 2β-carbomethoxy-3β-(4-fluorophenyl)tropane]
- striatal-to-cerebellar ratio ([9]; 58 min): > 4.0
- CFT binding in MPTP-treated Parkinsonian monkeys ([9]; MPTP-treated Parkinsonian): reduced
- uptake in caudate-putamen ([9]; PET, 90 min imaging): high uptake
- CFT binding in asymptomatic monkeys ([9]; asymptomatic): depletion was found

SMILES: COC(=O)[C@H]1[C@@H](c2ccc(I)cc2)C[C@@H]2CC[C@H]1N2C [[^125 I]RTI-55, 2β-carbomethoxy-3β-(4-iodophenyl)tropane]
- ex vivo density ([6]; caudate-putamen): highest densities
- ex vivo density ([6]; thalamus, cortex and brain stem nuclei): moderately high densities
- potency of labeling caudate putamen sites relative to [^3 H]CFT [10]: approximately 10 fold
- additional sites labeled [11]: associated with the serotonin transporter

SMILES: CC(NC(C)(C)C)C(=O)c1cccc(Cl)c1 (stereo not shown) [bupropion]
- number of binding components [3]: a single binding component
- steepness of competition curve [3]: 0.94-1.1
- rank order of potency for inhibiting [^3 H]CFT binding [2]: Lu 19-005>CFT, mazindol, GBR 12909>(-)-cocaine>bupropion>(+)-cocaine

SMILES: OC1(c2ccc(Cl)cc2)c2ccccc2C2=NCCN21 (stereo not shown) [mazindol]
- rank order of potency for inhibiting [^3 H]CFT binding [2]: Lu 19-005>CFT, mazindol, GBR 12909>(-)-cocaine>bupropion>(+)-cocaine
- displacement of bound [^11 C]CFT from striatum ([9]; cynomolgus monkey, in vivo): displaced bound [^11 C]CFT from the striatum
